Experimental data: US20250127728A1, “Constrained Ionizable Cationic Lipids and Lipid Nanoparticles” (CAPSTAN THERAPEUTICS, INC., priority 2023, published 2025)
Entries after “also recorded” stand apart in the source; their conditions may differ. Read-outs that look alike come from different tables or passages of the source.

Key:
[1] = apparent or measured pKa of ionizable lipid in the lipid nanoparticle, TNS assay; type: physicochemical
Method: The apparent or measured pKa of ionizable lipid in the lipid nanoparticle was determined using 6-(p-toluidino)-2-naphthalenesulfonic acid sodium salt (TNS salt, Toronto Research Chemicals, Toronto, ON, Canada). Lipid nanoparticles were diluted in 1×Dulbecco's PBS to a concentration of 1 mM total lipids. TNS salt was prepared as a 1 mg/mL stock solution in DMSO and then further diluted using distilled water to a working solution of 60 μg/mL ([…]). Diluted lipid nanoparticle samples were further diluted to 90 μM total lipids in 165 μL of buffered solution containing 10 mM HEPES, 10 mM MES, 10 mM ammonium acetate, 130 mM NaCl, and final TNS concentration of 1.33 μg/mL (4 μM) with the pH ranging from 3.5 to 12.2. Following pipette mixing and incubation at room temperature in the dark for 15 min, fluorescence intensity was measured at room temperature in a BioTek Synergy H1 plate reader using excitation and emission wavelengths of 321 and 445 nm, respectively. The fluorescence signal was blank subtracted and plotted as a function of the pH, then analyzed using a nonlinear (Boltzmann) regression analysis with the apparent pKa determined as the pH giving rise to half maximal fluorescence intensity as calculated by the Henderson-Hasselbalch equation.

splenic T cells = experiment: in vivo transfection with mCherry mRNA by CD5-targeted tLNP, splenic T cells; settings: C57BL/6 mice; for performance of tLNP: transfection rate and expression level (MESF) / effect of ionizable cationic lipid content (50%, 58%, 62%, 65%) on transfection rate: in words; for transfection rate in spleen T cells: 10 μg mRNA tail vein, 24 hours
Method: (§1) To assess the ability of a constrained ionizable cationic lipids to facilitate in vivo transfection of T cells with mCherry mRNA (SEQ ID NO. 5), tLNP incorporating CICL-207, or for comparison, CICL-1, and conjugated to an anti-mouse CD5 antibody were prepared and administered to C57BL/6 mice. The tLNP comprised either CICL-207 or CICL-1, DSPC, cholesterol, either DMG-PEG(2000) or DSG-PEG(2000), and DSPE-PEG(2000)-maleimide in the proportions indicated in Table 7 (below) and an N/P ratio of 6. CICL-1 has the structure:
Briefly, to prepare the tLNP, N1-methylpseudouridine (m1ψ)-substituted mCherry mRNA was encapsulated in LNP using a self-assembly process in which an aqueous solution of mRNA at pH 3.5 was rapidly mixed with a solution of lipids dissolved in ethanol, then followed by stepwise phosphate and Tris buffer dilution and tangential flow filtration (TFF) purification. Then an anti-CD5 mAb was conjugated to the above LNP to generate tLNP. Purified rat anti-mouse CD5 antibody, clone 53-7.3 (BioLegend), was coupled to LNP via N-succinimidyl S-acetylthioacetate (SATA)-maleimide conjugation chemistry. Briefly, LNPs with DSPE-PEG(2000)-maleimide incorporated were formulated and stored at 4° C. on the day of conjugation. The antibody was modified with SATA (Sigma-Aldrich) to introduce sulfhydryl groups at accessible lysine residues allowing conjugation to maleimide. SATA was deprotected using 0.5 M hydroxylamine followed by removal of the unreacted components by G-25 Sephadex Quick Spin Protein columns (Roche Applied Science, Indianapolis, IN). The reactive sulfhydryl group on the antibody was then conjugated to maleimide moieties on the LNPs using thioether conjugation chemistry. Purification was performed using Sepharose CL-4B gel filtration columns (Sigma-Aldrich). tLNPs (LNPs conjugated with a targeting antibody) were frozen at −80° C.
The mice were administered tLNPs containing 10 μg of mRNA by tail vein injection and tissue was harvested 24 hours later. […] These same trends have been observed with tLNP comprising CICL-1 as the ionizable lipid (data not shown). The tLNP comprising 58% ionizable cationic lipid had similarly low transfection rates (<4%) for CD45^− liver cells (hepatocytes)(FIG. 1B). […]

[2] = apparent or measured pKa of ionizable lipid in the lipid nanoparticle, TNS assay; type: physicochemical; settings: predicted from c-pKa and measured pKa of CICL-207
[3] = system: liver Kupffer cells (CD45+/CD11+ liver cells); experiment: in vivo transfection with mCherry mRNA by CD5-targeted tLNP, liver Kupffer cells; settings: C57BL/6 mice, 10 μg mRNA tail vein, 24 hours
Method: as §1
Briefly, to prepare the tLNP, N1-methylpseudouridine (m1ψ)-substituted mCherry mRNA was encapsulated in LNP using a self-assembly process in which an aqueous solution of mRNA at pH 3.5 was rapidly mixed with a solution of lipids dissolved in ethanol, then followed by stepwise phosphate and Tris buffer dilution and tangential flow filtration (TFF) purification. Then an anti-CD5 mAb was conjugated to the above LNP to generate tLNP. […]
Further ionizable cationic lipids according to Formula M2 were incorporated into tLNP and the ability of the tLNP to transfect cells in vivo assessed essentially as described in the preceding Example. Their physicochemical properties as determined in various experiments are compiled in Table 10.

[4] = system: luciferase mRNA expression in liver, spleen and other organs; experiment: luciferase biodistribution (organ bioluminescence) of LNP and CD5-targeted tLNP; type: in vivo, C57Bl/6 mice; settings: 2 μg mRNA/animal
Method: LNP and tLNP with the F9 and F50 composition were prepared as example 66 described, except the payload consisted of mRNA encoding luciferase (SEQ ID NO. 4).
Eight-week-old female C57BI)6 mice (Charles River Laboratories) were intravenously injected with […] or F50 LNPs or CD5-targeted tLNPs encapsulating mRNA encoding luciferase at a dose of 2 μg mRNA/animal via the tail vein. At 6 hours post-injection, prone and supine bioluminescence images were collected from all mice (FIGS. 8A-8B). Following whole-animal imaging, the mice were sacrificed, and the following tissues were collected: liver, spleen, lung, kidneys (both), heart, bone marrow (femur), lymph nodes (left and right inguinal), and brain. Tissues were placed into luciferin pre-filled black polystyrene plates with spacing between tissues, and bioluminescent images were collected at 6 hours and 24 hours post-injection (FIGS. 8C-8D, respectively).

[5] = tolerability of F50 LNP: liver enzymes, acute phase proteins, cytokines; type: in vivo, Sprague Dawley rats; settings: rats, intravenous, up to 8 mg/kg
Method: A study in which various dosages of undecorated F50 LNP encapsulating mCherry mRNA (up to 8 mg/kg) were administered intravenously to 8-week-old male Sprague Dawley rats (Charles River Laboratories). Liver enzymes in serum were determined (FIGS. 12A-B). Acute phase protein (FIGS. 12C-E) and cytokine levels (FIGS. 12F-H) were assessed in plasma by Luminex assay.

[6] = tolerability of LNP-containing compositions in rat (general statements); settings: tLNP, single doses
[7] = Table 11, in tLNP formulation, read-out: Measured pKa
[8] = read-out: measured pKa (in tLNP formulation)

For CCCCCCCCC(=O)OCC(COC(=O)CCCCCCCC)CC(=O)OC[C@@H]1C[C@@H](OC(=O)CC(COC(=O)CCCCCCCC)COC(=O)CCCCCCCC)CN1C(=O)SCCN(C)C [CICL-217, 2-(2-(((2S,4R)-1-(((2-(dimethylamino)ethyl)thio)carbonyl)-4-((4-(nonanoyloxy)-3-((nonanoyloxy)methyl)butanoyl)oxy)pyrrolidin-2-yl)methoxy)-2-oxoethyl)propane-1,3-diyl dinonanoate], the “measured pKa (in tLNP formulation)” value [1] was “fell outside the range of 6 to 7” and the “performance of tLNP: transfection rate and expression level (MESF)” value (“performance of tLNP” for short) (splenic T cells) was 3 of the 4 poorest performing tLNP.

With CCCCCCCCC(=O)OCC(COC(=O)CCCCCCCC)CC(=O)OC[C@@H]1C[C@@H](OC(=O)CC(COC(=O)CCCCCCCC)COC(=O)CCCCCCCC)CN1C(=O)OCCN1CCCCC1 [CICL-207-119] the “measured pKa in formulation (prediction)” value [2] was “close to the desired pKa=6-7 midpoint”.

CCCCCCCCC(=O)OCC(COC(=O)CCCCCCCC)CC(=O)OC[C@@H]1C[C@H](OC(=O)CC(COC(=O)CCCCCCCC)COC(=O)CCCCCCCC)CN1C(=O)N1CCN(C)CC1 [CICL-239, 2-(2-(((2S,4S)-1-(4-methylpiperazine-1-carbonyl)-4-((4-(nonanoyloxy)-3-((nonanoyloxy)methyl)butanoyl)oxy)pyrrolidin-2-yl)methoxy)-2-oxoethyl)propane-1,3-diyl dinonanoate] gave a pKa [1, 7] of 6.25 and a pKa [1, 8] of 6.25.

With CCCCCCCCC(=O)OCC(COC(=O)CCCCCCCC)CC(=O)O[C@@H]1C[C@H](OC(=O)CC(COC(=O)CCCCCCCC)COC(=O)CCCCCCCC)CN(C(=O)OCCN(C)C)C1 [CICL-238, (((Rel-(3R,5S)-1-((2-(dimethylamino)ethoxy)carbonyl)piperidine-3,5-diyl)bis(oxy))bis(2-oxoethane-2,1-diyl))bis(propane-2,1,3-triyl) tetranonanoate] the pKa [1, 8] was 7.09 and the “performance of tLNP” value (splenic T cells) was 3 of the 4 poorest performing tLNP.

For CCCCCCCCC(=O)OCC(COC(=O)CCCCCCCC)CC(=O)OC[C@@H]1C[C@@H](OC(=O)CC(COC(=O)CCCCCCCC)COC(=O)CCCCCCCC)CN1C(=O)OCCN(C)c1ccncc1 [CICL-207-130], the “measured pKa in formulation (prediction)” value [2] was “close to the desired pKa=6-7 midpoint”.

With CCCCCCCCC(=O)OCC(COC(=O)CCCCCCCC)CC(=O)O[C@H]1C=C[C@H](OC(=O)CC(COC(=O)CCCCCCCC)COC(=O)CCCCCCCC)CN(C(=O)OCCN(C)C)C1 (racemic) [CICL-218, (((Rel-(3S,6S)-1-((2-(dimethylamino)ethoxy)carbonyl)-2,3,6,7-tetrahydro-1H-azepine-3,6-diyl)bis(oxy))bis(2-oxoethane-2,1-diyl))bis(propane-2,1,3-triyl) tetranonanoate] the pKa [1, 7] was 6.07, the pKa [1, 8] was 6.11 and the “transfection rate in spleen T cells” value (splenic T cells) was “ca. 20%”.

For CCCCCCCCC(=O)OCC(COC(=O)CCCCCCCC)CC(=O)OC[C@@H]1C[C@@H](OC(=O)CC(COC(=O)CCCCCCCC)COC(=O)CCCCCCCC)CN1C(=O)OCCN(C)C [CICL-207, 2-(2-(((2S,4R)-1-((2-(dimethylamino)ethoxy)carbonyl)-4-((4-(nonanoyloxy)-3((nonanoyloxy)methyl)butanoyl)oxy)pyrrolidin-2-yl)methoxy)-2-oxoethyl)propane-1,3-diyl dinonanoate], the “effect of ionizable cationic lipid content (50%, 58%, 62%, 65%) on transfection rate” value (splenic T cells) was “greater for CICL-207 than for CICL-225 in splenic T cells; also recorded: decreased performance”, the “performance of tLNP” value (splenic T cells) was “best performing composition; also recorded: somewhat more desirable transfection rates” and the “transfection rate for liver Kupffer cells (CD45+/CD11+)” value [3] was “similarly low levels”. For the same compound, the “bioluminescence in non-target organs” value [4] was “generally producing the least bioluminescence”, the tolerability [5] was “well tolerated” and the “single dose generally well tolerated” value [6] was “at least 8 mg/kg”.

In the case of CCCCCCCCC(=O)OCC(COC(=O)CCCCCCCC)CC(=O)O[C@H]1CN(C(=O)OCCN(C)C)C[C@H]1OC(=O)CC(COC(=O)CCCCCCCC)COC(=O)CCCCCCCC [CICL-216, (((Rel-(3S,4R)-1-((2-(dimethylamino)ethoxy)carbonyl)pyrrolidine-3,4-diyl)bis(oxy))bis(2-oxoethane-2,1-diyl))bis(propane-2,1,3-triyl) tetranonanoate], the “measured pKa (in tLNP formulation)” value [1] is reported as “fell outside the range of 6 to 7” and the “performance of tLNP” value (splenic T cells) is reported as 3 of the 4 poorest performing tLNP.

With CCCCCCCCC(=O)OCC(COC(=O)CCCCCCCC)CC(=O)OC[C@@H]1C[C@@H](OC(=O)CC(COC(=O)CCCCCCCC)COC(=O)CCCCCCCC)CN1C(=O)OCCN(CCC)CCC [CICL-207-109] the “measured pKa in formulation (prediction)” value [2] was “close to the desired pKa=6-7 midpoint”.

For CCCCCCCCC(=O)OCC(COC(=O)CCCCCCCC)CC(=O)OC[C@@H]1C[C@@H](OC(=O)CC(COC(=O)CCCCCCCC)COC(=O)CCCCCCCC)CN1C(=O)OCCCN1CCC(O)CC1 [CICL-207-122], the “measured pKa in formulation (prediction)” value [2] was “close to the desired pKa=6-7 midpoint”.

With CCCCCCCCC(=O)OCC(COC(=O)CCCCCCCC)CC(=O)OC[C@@H]1C[C@H](OC(=O)CC(COC(=O)CCCCCCCC)COC(=O)CCCCCCCC)CN1C(=O)OCCN(C)C [CICL-224, 2-(2-(((2S,4S)-1-((2-(dimethylamino)ethoxy)carbonyl)-4-((4-(nonanoyloxy)-3-((nonanoyloxy)methyl)butanoyl)oxy)pyrrolidin-2-yl)methoxy)-2-oxoethyl)propane-1,3-diyl dinonanoate] the pKa [1, 7] was 6.98, the pKa [1, 8] was about 7 and the “transfection rate in spleen T cells” value (splenic T cells) was “below 40%”.

For CCCCCCCCC(=O)OCC(COC(=O)CCCCCCCC)CC(=O)OC[C@H]1C[C@H](OC(=O)CC(COC(=O)CCCCCCCC)COC(=O)CCCCCCCC)CN1C(=O)OCCN(C)C [CICL-225, 2-(2-(((2R,4S)-1-((2-(dimethylamino)ethoxy)carbonyl)-4-((4-(nonanoyloxy)-3-((nonanoyloxy)methyl)butanoyl)oxy)pyrrolidin-2-yl)methoxy)-2-oxoethyl)propane-1,3-diyl dinonanoate], the “effect of ionizable cationic lipid content (50%, 58%, 62%, 65%) on transfection rate” value (splenic T cells) was “greater in both types of liver cells”.

In the case of CCCCCCCCC(=O)OCC(COC(=O)CCCCCCCC)CC(=O)OCCN(CCOC(=O)CC(COC(=O)CCCCCCCC)COC(=O)CCCCCCCC)C(=O)OCCN(C)C [CICL-1, reference compound], the “transfection rate for liver Kupffer cells (CD45+/CD11+)” value [3] is reported as about 6%.
